According to article PMC6568410, “A scorpion venom peptide derivative BmKn‒22 with potent antibiofilm activity against Pseudomonas aeruginosa” (PLoS ONE, 2019):
Where no end group is shown, it is not given here.

Tests used:
Type in all cases: cell-based, Pseudomonas aeruginosa
[1] = system: P. aeruginosa PAO1 biofilm formation; test: Biofilm formation assay, crystal violet staining
Procedure: The effect of BmKn‒2 peptide and derivatives on biofilm formation of P. aeruginosa PAO1 was determined according to the method published previously with some modifications. Briefly, 100 μL of the test peptides was plated into the wells of flat-bottomed 96-well microtiter plates (Nunc™, Roskilde, Denmark) at the final concentrations of 200 ‒ 800 μM. Aliquots of the P. aeruginosa PAO1 suspension were then inoculated to the wells of 96-well microtiter plates to obtain a final concentration of 10^6 CFU/mL. Culture without the test peptides was used as the untreated control. After incubation at 37 ^OC for 24 h without agitation, planktonic cells were removed and the plates were gently rinsed twice with phosphate buffered saline (PBS) pH 7.4. Biofilms were then stained with 0.1% crystal violet solution (Merck, Darmstadt, Germany) for 10 minutes at room temperature. Excess stains were rinsed off with PBS pH 7.4 and the plates were left dry at 37 ^OC for 2 h. Subsequently, biofilm biomass was solubilized with 30% acetic acid and the optical density (OD) measured at 550 nm using a microplate reader (BioTek Synergy HT).

lasI mRNA = test: qRT-PCR of quorum sensing-related gene lasI; conditions: 800 µM, 10 h
Procedure: (§1) The effects of BmKn‒22 peptide on the expression of quorum sensing‒related genes in P. aeruginosa PAO1 were assessed by qPCR. Briefly, bacterial suspension at approximately 10^7 CFU/mL was cultured in the presence or absence of the test peptide (800 μM, final concentration) at 37 ^OC for 10 h using a shaking incubator. After centrifugation at 4,500 rpm for 10 minutes, the bacterial cells were harvested and subsequently subjected to total RNA extraction using TRIzol® reagent (Invitrogen, USA) as per the manufacturer’s instruction. The concentration of the extracted RNA was measured using Nanodrop spectrophotometer (NanoDrop Technologies, USA). Thereafter, 1 μg of extracted RNA was reverse-transcribed into cDNA using Random Hexamer primer and RevertAid First Strand cDNA synthesis kit (Fermantas), which was amplified by real-time PCR. The primers for the genes lasI, lasR, RhlI, RhlR and 16S rRNA were used (Table 2). All primers were synthesized by the Integrated DNA Technology (IDT), Canada. The reaction mixture consisted of 1× AccuPower® 2X GreenStar™ qPCR Master Mix, 0.4 μmol/L each forward primer and reverse primer and 1 μL of cDNA in a final volume of 10 μL. Thermal cycles used was 95 ^OC for 2.5 min, followed by 40 cycles of 95 ^OC for 30 sec, 60 ^OC for 30 sec and 72 ^OC for 30 sec. The expression level of the target gene was normalized to 16S rRNA gene. Relative expression of the target genes was obtained from 2^‒ΔΔct.

P. aeruginosa PAO1 = test: Growth assay, standard plate counts; conditions: 800 µM, 24 h
Procedure: The effects of BmKn‒2 peptide and its derivatives on growth of P. aeruginosa PAO1 were carried out as described previously with some modifications. Bacterial suspension (10^6 CFU/mL) and the test peptides (800 μM, final concentration) were incubated at 37 ^OC at 150 rpm. Bacterial culture without the test peptides was used as the untreated control. After 24 h, bacterial concentration was evaluated. Cultures from each treatment were taken and 10-fold serial dilution was performed; 100 μL of each dilution was then spread on LB agar plates. Following incubation at 37°C for 24 h, the colonies were counted and expressed as log10 CFU/mL.

[2] = system: pyocyanin production of P. aeruginosa PAO1; test: Pyocyanin assay, chloroform extraction
Procedure: Pyocyanin pigments produced by P. aeruginosa PAO1 after exposure to the BmKn‒22 peptide were determined according to the protocol described previously. Briefly, 750 μL of P. aeruginosa suspension (10^7 CFU/mL, final concentration) was mixed with 250 μL of LB broth containing the test peptide at final concentrations of 200 ‒ 800 μM and incubated at 37 ^OC for 24 hours with agitation (150 rpm). Control culture without the test peptide was simultaneously propagated. After centrifugation at 4,500 rpm for 10 minutes, supernatant was collected and pyocyanin was extracted with chloroform followed by 0.2 N HCl. The suspension was centrifuged once at 4,500 rpm for 10 minutes, and the pink phase layer was subjected to optical density determination at […] using a microplate reader (BioTek Synergy HT).

rhlI mRNA = test: qRT-PCR of quorum sensing-related gene rhlI; conditions: 800 µM, 10 h
Procedure: as §1

[3] = normalized to 16S rRNA, 2^-ΔΔct, untreated control = 1, mean of 2 independent experiments in quadruplicate

For FIGAIARLLSK [BmKn-22], the “Biofilm inhibition (%), biofilm formation” value (from here on “Biofilm inhibition (%)”) ([1]; 200 µM, Exp. 1) was 27.575%, the “Biofilm inhibition (%)” value ([1]; 200 µM, Exp. 2) was 27.680% and the “Biofilm inhibition (%)” value ([1]; 200 µM, Exp. 3) was 8.419%. The “Biofilm inhibition (%)” value ([1]; 400 µM, Exp. 1) was 20.197%, the “Biofilm inhibition (%)” value ([1]; 400 µM, Exp. 2) was 40.825% and the “Biofilm inhibition (%)” value ([1]; 400 µM, Exp. 3) was 37.257%. The “reduction of P. aeruginosa biofilms” value ([1]; 800 µM, 24 h, compared with untreated control, result in words) was “marked reduction”, the “Biofilm inhibition (%)” value ([1]; 800 µM, Exp. 1) was 46.468% and the “Biofilm inhibition (%)” value ([1]; 800 µM, Exp. 2) was 53.212%. The “Biofilm inhibition (%)” value ([1]; 800 µM, Exp. 3) was 47.945%, the “Relative mRNA expression, lasI” value (lasI mRNA; [3]) was 0.403 and the “Relative mRNA expression, lasI” value (lasI mRNA; Exp. 1) was 0.314. For the same sequence, the “Relative mRNA expression, lasI” value (lasI mRNA; Exp. 2) was 0.491, the “mRNA expression of lasI” value (lasI mRNA; result in words) was “significantly (P < 0.05) decreased” and the “Bacterial growth, Log10 CFU/mL” value (P. aeruginosa PAO1; 37 °C, 150 rpm, plate counts, untreated control 9.183, mean of 3 independent experiments) was 9.323 Log10 CFU/mL. For the same sequence, the “effect on bacterial counts (growth)” value (P. aeruginosa PAO1; compared with untreated control, result in words) was “no significant (P > 0.05) differences in bacterial counts”, the “Bacterial growth, Log10 CFU/mL” value (P. aeruginosa PAO1; Exp. 1 (untreated control 9.082)) was 9.235 Log10 CFU/mL and the “Bacterial growth, Log10 CFU/mL” value (P. aeruginosa PAO1; Exp. 2 (untreated control 9.198)) was 9.292 Log10 CFU/mL. The “Bacterial growth, Log10 CFU/mL” value (P. aeruginosa PAO1; Exp. 3 (untreated control 9.268)) was 9.443 Log10 CFU/mL, the “Pyocyanin production (% control)” value ([2]; 200 µM, 37 °C, 24 h, 150 rpm, OD 380 nm, mean of 3 independent experiments) was 47.395 % control and the “Pyocyanin production (% control)” value ([2]; 200 µM, Exp. 1) was 62.849 % control. For the same sequence, the “Pyocyanin production (% control)” value ([2]; 200 µM, Exp. 2) was 40.419 % control, the “Pyocyanin production (% control)” value ([2]; 200 µM, Exp. 3) was 38.918 % control and the “Pyocyanin production (% control)” value ([2]; 400 µM, 37 °C, 24 h, 150 rpm, OD 380 nm, mean of 3 independent experiments) was 48.157 % control. The “Pyocyanin production (% control)” value ([2]; 400 µM, Exp. 1) was 59.310 % control, the “Pyocyanin production (% control)” value ([2]; 400 µM, Exp. 2) was 37.273 % control and the “Pyocyanin production (% control)” value ([2]; 400 µM, Exp. 3) was 47.889 % control. The “Pyocyanin production (% control)” value ([2]; 800 µM, 37 °C, 24 h, 150 rpm, OD 380 nm, mean of 3 independent experiments) was 60.164 % control, the “Pyocyanin production (% control)” value ([2]; 800 µM, Exp. 1) was 68.994 % control and the “Pyocyanin production (% control)” value ([2]; 800 µM, Exp. 2) was 42.898 % control. For the same sequence, the “Pyocyanin production (% control)” value ([2]; 800 µM, Exp. 3) was 68.601 % control, the “Relative mRNA expression, rhlI” value (rhlI mRNA; [3]) was 1.127 and the “Relative mRNA expression, rhlI” value (rhlI mRNA; Exp. 1) was 0.929. The “Relative mRNA expression, rhlI” value (rhlI mRNA; Exp. 2) was 1.325 and the “mRNA expression of rhlI” value (rhlI mRNA; result in words) was “no alteration”.
